Assay results taken from patent US11066372B2, “Deuterated benzimidazole compound and medical use thereof” (Sumitomo Dainippon Pharma Co., Ltd., priority 2017, dated 2021).

Tests used:
[1] = Metabolic stability test in liver microsome (human); format: in vitro ADME; conditions: NADPH, 37° C., 30 minutes, dealkyl metabolite product (Reference example 5-7) assayed
Procedure: (§1) Test 3: Metabolic Stability Test in Liver Microsome
(§2) To a solution obtained by mixing 4 μL of human or rat liver microsome (produced by Xenotech, 20 mg/mL), 100 μL of 100 mM phosphate buffer solution (pH 7.4), and 74 μL of ultrapure water were added 2 μL of 1 μM DMSO solution of the test compound and further 40 μL of 10 mM aqueous NADPH (produced by Oriental Yeast Co., ltd.), and then the mixture was incubated at 37° C. for 30 minutes. After the incubation, 50 μL of the reaction solution was added to methanol to cease the metabolic reaction. The quenched solution was centrifuged at 4° C. at 4500 rpm for 5 minutes, and the supernatant was filtrated. 100 μL of the supernatant was mixed with 100 μL of 10 mM aqueous ammonium acetate, and the mixture was analyzed with LC (Shimadzu, NexeraX2)-MS (AB Sciex, TripleTOF5600) to determine the amount of the corresponding metabolite product in the mixture.

[2] = tested on: rats streptozotocin (STZ)-induced diabetic peripheral neuropathy model; assay: Analgesic effect (von Frey test) in streptozotocin-induced diabetic peripheral neuropathic pain model; format: in vivo, rat; conditions: orally administered 3 mg/kg, one hour before measuring, male Wistar rats
Procedure: Test 2: Evaluation of Analgesic Effect in Streptozotocin-Induced Diabetic Peripheral Neuropathic Pain Models
Using some typical compounds among the compounds of the present invention, the inhibitory effect for neuropathic pain was determined through the evaluation of analgesic effect in rats streptozotocin (STZ)-induced diabetic peripheral neuropathy model.
The disease animal model was prepared by means of a partially-modified method of Fox et al. (Pain 81, 307-316, 1999). STZ was intraperitoneally administered to 9-week old male Wistar rats in 45 mg/kg of body weight to prepare animal model suffering from diabetic peripheral neuropathy.
The analgesic effect was evaluated by von Frey test. Specifically, mechanical sensitivity was measured by applying hairs (von Frey hair) to the plantar surface of the animal's hind paw, and then the reaction thresholds (50% paw withdrawal thresholds) for the mechanical stimulation was determined by using a formula based on Chaplan et al. (Journal of Neuroscience Methods 53, 55-63, 1994).
One and two days before evaluating the test compounds, the reaction thresholds were measured to obtain an average thereof, and the average value was used as a reference value obtained before the test compounds would be administered. […]
In the evaluation test of the test compounds, the reaction thresholds were measured after administering each test compound. […]

human SCN9A (Nav 1.7) = human SCN9A (Nav 1.7) (Homo sapiens, UniProt Q15858); assay: Measurement of Na ion current (Nav 1.7) by automated patch clamp assay in cells stably-expressing human SCN9A; format: cell-based; conditions: compound concentration 10 μmol/L, holding potential inactivating 50% Nav 1.7 channel (around −60 mV); for inhibition at 10 µM: read-out: Inhibitory rate (%) of Na ion current
Procedure: Test 1: Measurement of Na Ion Current in Voltage-Dependent Na Channel Gene Expressed Cell
Nav 1.7 current was measured by automated patch clamp assay using cells stably-expressing human SCN9A.
Cells Stably-Expressing Human SCN9A
Tetracycline-induced cells stably-expressing SCN9A were obtained from ChanTest Corporation. The cells were passaged in Ham's F-12 medium containing 10% fetal bovine serum, 100 units/mL Penicillin-Streptomycin, 0.01 mg/mL Blasticidin, and 0.4 mg/mL Zeocin. The day before the measurement, the medium was replaced with Ham's F-12 medium containing 1 μg/mL tetracycline, 100 μmol/L sodium butyrate, 10% fetal bovine serum, and 100 units/mL Penicillin-Streptomycin. Next day, the Na ion current was measured by automated patch clamp assay.
Electrophysiologic Measurement of Na Ion Current
The Na ion current was measured by automated patch clamp assay using the following extracellular solution and intracellular solution.
Extracellular solution (mmol/L): NaCl 130, MgCl2 2, CaCl2 2, CdCl2 0.1, NiCl2 0.1, Tetraethylammonium-Cl 18, 4-aminopyridine 1, HEPES 10, (adjusting pH 7.4 with NaOH)
Intracellular solution (mmol/L): CsF 120, EGTA 10, NaCl 15, HEPES 10, (adjusting pH 7.2 with CsOH)
The control of the stimulating pulse and the data acquisition were carried out using EPC10 amplifier and Patch Master Software (HEKA). Data were sampled at 10 kHz, and low-pass filtered at 3 kHz. All the measurements were carried out at room temperature. The holding potential was set at a potential inactivating 50% Nav 1.7 channel (around −60 mV), and depolarizing pulse of 20 milliseconds (+10 mV) was given once. […] The inhibitory rate of the Na ion current by the test compounds was calculated according to the following calculating formula with the peak current value generated by the depolarizing pulse. Inhibitory rate of Na ion current (%)=100×[(Peak current value in the absence of Test Compound)−(Peak current value in the presence of Test Compound)]/(Peak current value in the absence of Test Compound) Result: […]

[3] = Metabolic stability test in liver microsome (rat); format: in vitro ADME; conditions: NADPH, 37° C., 30 minutes, dealkyl metabolite product (Reference example 5-7) assayed
Procedure: as §1, §2

Sequence of human SCN9A (Nav 1.7) (Q15858 whole entry): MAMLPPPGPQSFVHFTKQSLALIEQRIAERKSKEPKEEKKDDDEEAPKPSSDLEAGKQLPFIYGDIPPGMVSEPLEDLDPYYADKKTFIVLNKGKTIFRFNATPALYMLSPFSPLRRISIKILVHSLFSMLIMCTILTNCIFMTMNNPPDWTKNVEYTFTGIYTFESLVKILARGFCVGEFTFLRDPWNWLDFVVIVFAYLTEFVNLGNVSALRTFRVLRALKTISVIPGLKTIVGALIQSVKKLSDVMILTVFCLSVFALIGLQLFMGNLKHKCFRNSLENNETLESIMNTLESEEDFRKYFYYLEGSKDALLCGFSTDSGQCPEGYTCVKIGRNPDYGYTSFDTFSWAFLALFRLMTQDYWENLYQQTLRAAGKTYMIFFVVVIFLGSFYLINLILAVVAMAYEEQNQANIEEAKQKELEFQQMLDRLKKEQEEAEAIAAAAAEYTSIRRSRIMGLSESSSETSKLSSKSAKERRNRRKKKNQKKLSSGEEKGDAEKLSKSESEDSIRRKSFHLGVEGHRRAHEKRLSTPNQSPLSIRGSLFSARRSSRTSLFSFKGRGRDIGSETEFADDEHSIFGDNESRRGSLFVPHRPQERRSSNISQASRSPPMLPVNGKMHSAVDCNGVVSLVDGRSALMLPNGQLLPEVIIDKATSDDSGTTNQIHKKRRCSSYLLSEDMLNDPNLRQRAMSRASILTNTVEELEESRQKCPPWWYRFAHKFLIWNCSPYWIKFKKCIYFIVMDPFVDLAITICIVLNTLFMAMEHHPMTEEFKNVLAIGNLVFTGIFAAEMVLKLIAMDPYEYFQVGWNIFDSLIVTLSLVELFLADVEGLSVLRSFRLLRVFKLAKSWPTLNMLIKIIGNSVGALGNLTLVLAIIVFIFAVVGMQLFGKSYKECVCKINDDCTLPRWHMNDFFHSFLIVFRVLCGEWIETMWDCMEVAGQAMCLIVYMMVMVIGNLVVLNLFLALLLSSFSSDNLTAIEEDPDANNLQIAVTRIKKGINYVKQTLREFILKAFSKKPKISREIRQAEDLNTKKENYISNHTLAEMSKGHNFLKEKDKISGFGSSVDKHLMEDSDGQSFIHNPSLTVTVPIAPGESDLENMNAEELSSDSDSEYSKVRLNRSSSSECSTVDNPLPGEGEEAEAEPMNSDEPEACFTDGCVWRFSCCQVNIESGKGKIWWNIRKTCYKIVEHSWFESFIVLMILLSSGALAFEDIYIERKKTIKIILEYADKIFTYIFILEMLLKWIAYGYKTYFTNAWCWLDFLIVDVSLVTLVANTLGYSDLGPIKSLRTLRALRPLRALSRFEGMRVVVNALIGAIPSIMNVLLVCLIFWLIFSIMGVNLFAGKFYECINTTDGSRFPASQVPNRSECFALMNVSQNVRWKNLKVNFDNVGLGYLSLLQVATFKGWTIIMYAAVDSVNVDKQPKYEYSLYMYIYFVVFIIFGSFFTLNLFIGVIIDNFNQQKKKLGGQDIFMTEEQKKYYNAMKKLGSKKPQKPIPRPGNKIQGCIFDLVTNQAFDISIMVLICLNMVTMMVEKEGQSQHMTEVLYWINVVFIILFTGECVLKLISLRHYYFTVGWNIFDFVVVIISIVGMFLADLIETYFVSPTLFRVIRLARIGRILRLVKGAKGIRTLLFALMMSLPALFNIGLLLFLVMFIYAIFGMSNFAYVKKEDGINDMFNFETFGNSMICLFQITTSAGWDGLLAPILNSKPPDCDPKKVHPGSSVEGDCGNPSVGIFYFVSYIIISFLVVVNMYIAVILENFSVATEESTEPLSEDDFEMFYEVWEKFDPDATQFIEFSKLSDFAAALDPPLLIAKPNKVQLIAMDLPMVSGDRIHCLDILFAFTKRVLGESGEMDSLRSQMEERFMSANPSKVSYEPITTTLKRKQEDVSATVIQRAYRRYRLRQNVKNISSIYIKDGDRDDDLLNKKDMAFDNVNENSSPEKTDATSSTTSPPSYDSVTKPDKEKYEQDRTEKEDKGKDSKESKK

| Rate of generating the metabolite product, human [1] | Inhibitory rate (%) of Na ion current (human SCN9A (Nav 1.7)) | Rate of generating the metabolite product, rat [3] | inhibition at 10 µM (human SCN9A (Nav 1.7)) | Molecule | extension width of reaction thresholds (50% paw withdrawal threshold, after minus before administration) [2] |
| --- | --- | --- | --- | --- | --- |
| 0.026 pmol/min/mg protein | 36% | 0.260 pmol/min/mg protein |  | 2-methyl-1-(6-{[5-(trifluoromethyl)pyridin-2-yl]oxy}-1H-benzimidazol-1-yl) (1,1-^2H2)propan-2-ol [Example 2] | 5.0 g |
|  |  |  | 55% | [2H]C([2H])(n1cnc2ccc(-c3ccc(C(F)(F)F)cc3OC)cc21)C1(O)COC1 [Example 5, 3-[{6-[2-methoxy-4-(trifluoromethyl)phenyl]-1H-benzimidazol-1-yl}(^2H2)methyl]oxetan-3-ol] |  |

More lines, now with the values behind:

| Molecule | Rate of generating the metabolite product, human [1] | Inhibitory rate (%) of Na ion current (human SCN9A (Nav 1.7)) | Rate of generating the metabolite product, rat [3] | inhibition at 10 µM (human SCN9A (Nav 1.7)) | extension width of reaction thresholds (50% paw withdrawal threshold, after minus before administration) [2] |
| --- | --- | --- | --- | --- | --- |
| 4-[6-(4-chlorophenoxy)-1H-benzimidazol-1-yl]-2-methyl(4,4-^2H2)butan-2-ol [Example 3] | 0.069 pmol/min/mg protein | 40% | 0.40 pmol/min/mg protein |  |  |
| 1-[6-(4-fluorophenoxy)-1H-benzimidazol-1-yl]-2-methyl (1,1-^2H2) propan-2-ol [Example 1] |  | 36% |  |  |  |
| [2H]C([2H])(n1cnc2ccc(Oc3ccc(OC(F)(F)F)cc3)cc21)C1(O)COC1 [Example 4, 3-[{6-[4-(trifluoromethoxy)phenoxy]-1H-benzimidazol-1-yl}(^2H2)methyl]oxetan-3-ol] |  |  |  | 68% |  |
